Reference: US4002738A, “Treatment of specified neoplasias” (Abbott Laboratories, priority 1975, dated 1977)

Key:
[1] = system: tumors induced by 7,12-dimethylbenzanthracene (DMBA); assay: DMBA-induced tumors in female rats, subcutaneous treatment; assay type: in vivo, rat
Method: In a group of 3 female, 50-day old rats, tumors were induced by intragastric feeding of 20 mg of 7,12-dimethylbenzanthracene (DMBA) in 2 ml. of sesame oil. The animals developed tumors within 10-12 weeks. All animals were maintained on normal rations for 100 days following the DMBA administration, at which time treatment with the compound of formula I (R = ethyl; R' = isobutyl) was started at a b.i.d. regimen Monday through Friday with a single dose on Saturday, the compound being subcutaneously administered as a 0.2% (wt/vol.) solution in isotonic saline.
The first animal carrying 4 tumors of volumes of 5.5, 3, 1 and 1 cc. respectively, was given the above regimen with 10 μg per dose.
In the second animal carrying 3 tumors, each dose contained only 5 μg of the drug.
The third animal had developed 5 tumors, measuring 6.5, 3.5, 1.5, 0.5 and 0.5 cc. respectively. After treatment with 2.5 μg. per dose of the test drug, these tumors were reduced to 1.5, 3.0, 0.5, 0.2 and >0.0 cc. in that sequence.

[2] = system: spontaneous growth in the right lateral mammary region (adenocarcinoma of the mammary gland); assay: Spontaneous mammary tumor in a female rat, subcutaneous treatment; assay type: in vivo
Method: A female rat that had developed a spontaneous growth in the right lateral mammary region was given b.i.d. 10 μg. of the compound of formula I (R'= isobutyl; R = ethyl). […] On day 9, a biopsy was performed and the tumor was identified as adenocarcinoma of the mammary gland. Treatment was stopped after 20 days and the animal was observed periodically. Tumor growth reappeared in the same area with rapid growth observed on day 65 (counted from original treatment beginning). […] Treatment with the above regimen was started again. The tumor regressed again and on day 93, its diameter was 1.2 cm. and its depth was 0.4 cm. […] However, the tumor remained dormant until day 147 (54 days following the last treatment), when significant growing resumed.

[3] = day 66, regrowth after treatment was stopped on day 20, before second treatment

CCNC(=O)[C@@H]1CCCN1C(=O)[C@H](CCCNC(=N)N)NC(=O)[C@H](CC(C)C)NC(=O)[C@@H](CC(C)C)NC(=O)[C@H](Cc1ccc(O)cc1)NC(=O)[C@H](CO)NC(=O)[C@H](Cc1c[nH]c2ccccc12)NC(=O)[C@H](Cc1c[nH]cn1)NC(=O)[C@@H]1CCC(=O)N1
tumor volume ([1]; first animal, 4 tumors of 5.5, 3, 1 and 1 cc, 10 μg per dose, after 2 weeks, the other two tumors): immeasurable volumes | tumor volume ([1]; first animal, 4 tumors of 5.5, 3, 1 and 1 cc, 10 μg per dose, after 2 weeks, two of the tumors): 1 cc | effect on tumor ([1]; second animal, 3 tumors, 5 μg per dose, one tumor): seemingly unaffected | tumor volume ([1]; second animal, 5 μg per dose, tumor of 3 cc before treatment): 11/4 | tumor volume ([1]; second animal, 5 μg per dose, tumor of 4 cc before treatment): 2 cc | tumor volume ([1]; third animal, 2.5 μg per dose, first tumor of 0.5 cc before treatment): 0.2 cc | tumor volume ([1]; third animal, 2.5 μg per dose, second tumor of 0.5 cc before treatment): > 0.0 cc | tumor volume ([1]; third animal, 2.5 μg per dose, tumor of 1.5 cc before treatment): 0.5 cc | tumor volume ([1]; third animal, 2.5 μg per dose, tumor of 3.5 cc before treatment): 3.0 cc | tumor volume ([1]; third animal, 2.5 μg per dose, tumor of 6.5 cc before treatment): 1.5 cc | day until which the tumor remained dormant before significant growing resumed ([2]; counted from original treatment beginning, 54 days following the last treatment): 147 days | tumor diameter ([2]; day 5 of treatment, 10 μg b.i.d. subcutaneous, diameter before treatment 3 cm): 2 cm | tumor diameter ([2]; day 9 of treatment, 10 μg b.i.d. subcutaneous, diameter before treatment 3 cm): 0.5 cm | tumor diameter ([2]; day 20 of treatment, 10 μg b.i.d. subcutaneous, diameter before treatment 3 cm): undetectable size | tumor depth [2, 3]: 2 cm | tumor diameter [2, 3]: 4 cm | tumor depth ([2]; day 93, second treatment started day 66 (depth then 2 cm), 10 μg b.i.d. subcutaneous): 0.4 cm | tumor diameter ([2]; day 93, second treatment started day 66 (diameter then 4 cm), 10 μg b.i.d. subcutaneous): 1.2 cm
